Active and inactive are the calls of the source. The calls are words filed in the database; no cut-off is given here.
Assays:
[1] = tested on: HCT-116
Description: (§1) Antiproliferative activity against human HCT116 cells after 72 hrs by MTT assay

[2] = tested on: ZR-75-30; assay: Antiproliferative activity against human ZR-7530 cells after 72 hrs by MTT assay; assay type: functional, cell-based
[3] = species on record: Homo sapiens; assay: Inhibition of human topoisomerase-2 assessed as reduction in relaxation of supercoiled pBR322 DNA at 100 uM after 30 mins by ethidium bromide staining based agarose gel electrophoresis method
[4] = tested on: A549
Description: (§2) Antiproliferative activity against human A549 cells after 72 hrs by MTT assay

[5] = tested on: HCT-116; assay: cells; conditions: Homo sapiens, HCT-116, 72 h
Description: as §1

[6] = species on record: Homo sapiens; assay: Inhibition of human topoisomerase-2 assessed as reduction in relaxation of supercoiled pBR322 DNA at 50 uM after 30 mins by ethidium bromide staining based agarose gel electrophoresis method
[7] = tested on: A549; assay: cells; conditions: Homo sapiens, A549, 72 h
Description: as §2

[8] = Inhibition of human topoisomerase-2 assessed as reduction in relaxation of supercoiled pBR322 DNA after 30 mins by ethidium bromide staining based agarose gel electrophoresis method
[9] = Homo sapiens, ZR-75-30, 72 h, read-out: IC50

Structure (SMILES)	IC50 [1]	inhibition [3]	IC50 [4]	IC50 [5] [µM]	IC50 [7] [µM]	IC50 [8] [µM]	IC50 ([2]; zr-75-30)	IC50 [2, 9] [µM]	inhibition [6]
C=CCn1c(CN2c3ccccc3Sc3ccccc32)nnc1SCC(=O)O	–	–	Not Active	32	–	–	–	15	–
COc1cc([C@@H]2c3cc4c(cc3[C@@H](O[C@@H]3O[C@@H]5CO[C@@H](C)O[C@H]5[C@H](O)[C@H]3O)[C@H]3COC(=O)[C@H]23)OCO4)cc(OC)c1O [ETOPOSIDE]	–	Active	–	1.1	68	184	–	1.5	inactive
CC(C)(O)C#Cc1cc(C(=O)NCCc2ccc(S(N)(=O)=O)cc2)c2oc(C(C)(C)O)cc2c1	Not Active	Active	Not Active	–	–	349	–	62	–
COc1ccc(C(=O)Cn2c(=N)n(Cc3ccc(C)cc3)c3ccccc32)cc1	–	Active	–	1	1.2	–	–	1.2	–
O=C(O)CCSc1nnc(-c2cccnc2)n1CCc1ccccc1	Not Active	–	Not Active	–	–	–	Not Active	–	–
Cc1cc(C(=O)O)ccc1-c1ccc(/C=c2/sc3nc4ccccc4n3c2=O)o1	Not Active	Active	Not Active	–	–	41	Not Active	–	–

More lines, main results first:

IC50 [1]	inhibition [3]	IC50 [4]	IC50 [5] [µM]	IC50 [7] [µM]	IC50 [8] [µM]	Structure (SMILES)	IC50 ([2]; zr-75-30)	IC50 [2, 9] [µM]	inhibition [6]
Not Active	Active	Not Active	–	–	–	N#Cc1c(-c2ccc(F)cc2)cc(-c2ccccc2)nc1SCC(=O)NCC(=O)O	Not Active	–	–
Not Active	–	Not Active	–	–	–	NS(=O)(=O)c1ccc(NC(=O)CSc2nnc3ccc4ccccc4n23)cc1	Not Active	–	–
–	Active	Not Active	54	–	–	O=C(O)COc1ccc(/C=N/n2c(COc3ccccc3)nc3ccccc3c2=O)cc1	–	58	–
–	Active	–	10	37	–	COc1ccc(-c2cc(-c3ccccc3)c(C#N)c(SCC(=O)O)n2)cc1	–	14	–
Not Active	Active	Not Active	–	–	–	O=C(O)c1ccc2c(c1)C(=O)N(c1ccc(C(=O)OCC(=O)c3ccccc3)cc1)C2=O	Not Active	–	–
Not Active	Active	Not Active	–	–	–	O=C(O)CCc1nn2c3ccccc3n(Cc3ccccc3)c2nc1=O	Not Active	–	–

From ChEMBL document CHEMBL4257539, “Identification of potent catalytic inhibitors of human DNA topoisomerase II by structure-based virtual screening” (Medchemcomm, 2018)
